# Assay results published in PubChem BioAssay (NCI).
#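 Test compounds were applied to cells in 96-well plates for 48 hours at 5 doses. TGI: total growth inhibition.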
# Test system: HCT-116 colon
# Experiment: inhibition of tumour cell growth, NCI panel, 48 h
row,Structure (SMILES),TGI [µM]
1,CC(C)(C)OC(=O)[C@H]1CCC(=S)N1Cc1ccccc1,> 100
2,COc1ccc(S(=O)(=O)c2nnc(S(=O)(=O)Cc3ccccc3)s2)cc1,38.1
3,O=[N+]([O-])c1ccc2c(c1)C1=C(CO2)Cc2ccccc2O1,30
4,Nc1nc(SC/C=C/c2ccccc2)c2[nH]cnc2n1,> 100
5,NC(=O)C12CC3CC(CC(F)(C3)C1)C2,> 100
6,CSc1nc(Nc2cccc(C(F)(F)F)c2)c2c(N)nn(C)c2n1,> 100
7,CCCCNC(=S)Nc1nc(C(=O)NNC(=S)Nc2ccccc2)cs1,> 100
8,CC(=O)c1c(C)n([O-])c2cc(Cl)c(Cl)cc2[n+]1=O,> 100
9,O=c1c(/C=C/c2c(O)ccc3ccccc23)nnc2sc(-c3cccc(Br)c3)nn12,> 100
10,CN(C)CCC(=O)c1ccccc1,55.4
11,CCOc1ccccc1NC(=O)C(=O)CC(=O)c1sc(Nc2nnc(-c3ccc(Cl)c(Cl)c3)o2)nc1C,> 100

# Test system: DU-145 prostate
# Experiment: inhibition of tumour cell growth, NCI panel, 48 h
row,Structure (SMILES),TGI [µM]
1,O=c1cc(-c2cccc3ccccc23)[nH]c2ncccc12,> 100
2,O=C(/C=C/c1cc2ccccc2o1)N1CCN(c2ccccn2)CC1,> 100
3,O=c1[nH]nc(Cc2ccccc2)n1/N=C/c1ccccc1O,> 100
4,CC(=O)Oc1ccc2c(C)cc(=O)oc2c1OC(C)=O,> 100
5,N#CCCN(C(=O)Nc1ccccc1)[C@H]1CCCC[C@@H]1N(C(=O)Nc1ccccc1)c1ccccc1,> 100
6,Nc1nc(N)c2c3c(cnc2n1)CC(c1ccccc1)CC3 (stereo not given),> 100
7,CSc1ncnc2c1ncn2CCC(=O)OC(C)(C)C,> 100
8,N#Cc1c(N)nc2n[nH]c(N)c2c1-c1ccc(Cl)cc1,> 71.8
9,COC(=O)C1=C(C(=O)NNc2ccccc2)N(c2cccnc2Cl)C(c2ccccc2)=CC1c1ccccc1 (stereo not given),> 100
10,CCOC(=O)c1nnc2c(C(=O)OCC)c3ccccc3n2c1N,> 100
11,CC12CC(c3ccccc3O1)C(C(=O)Nc1ccc(Cl)cc1Cl)C(=O)N2 (stereo not given),> 100
12,COC(=O)C1=C(O)C(C(=O)OC)[C@]2(O)[C@H](C(=O)OC)[C@H]1C[C@@H](c1ccc(C(F)(F)F)cc1)[C@H]2C(=O)OC (stereo not given in full),28.1
13,CCOC(=O)C12OC(CCC1=O)C(C(=O)OC)=C2C(=O)OC (stereo not given),> 10
14,NNC(=O)c1n[nH]nc1C(=O)NN,> 100
15,O=C(O)[C@@H]1CCS(=O)(=O)N1,> 100
16,CCOC(=O)NC(Nc1ccc(S(=O)(=O)Nc2nc(C)cc(C)n2)cc1)(C(=O)OCC)C(F)(F)F (stereo not given),> 100
17,CC(C)(C)OC(=O)[C@H]1CCC(=S)N1Cc1ccccc1,> 100
18,COc1ccc(S(=O)(=O)c2nnc(S(=O)(=O)Cc3ccccc3)s2)cc1,33
19,O=[N+]([O-])c1ccc2c(c1)C1=C(CO2)Cc2ccccc2O1,> 100
20,Nc1nc(SC/C=C/c2ccccc2)c2[nH]cnc2n1,> 100
21,CSc1nc(Nc2cccc(C(F)(F)F)c2)c2c(N)nn(C)c2n1,> 100
22,CCCCNC(=S)Nc1nc(C(=O)NNC(=S)Nc2ccccc2)cs1,> 100
23,CC(=O)c1c(C)n([O-])c2cc(Cl)c(Cl)cc2[n+]1=O,> 100
24,O=c1c(/C=C/c2c(O)ccc3ccccc23)nnc2sc(-c3cccc(Br)c3)nn12,45.3

# Test system: HOP-62 NSCLC
# Experiment: inhibition of tumour cell growth, NCI panel, 48 h
row,Structure (SMILES),TGI [µM]
1,O=c1cc(-c2cccc3ccccc23)[nH]c2ncccc12,> 100
2,CN1CCOC(c2ccccc2)O1 (stereo not given),> 100
3,O=C(/C=C/c1cc2ccccc2o1)N1CCN(c2ccccn2)CC1,> 100
4,CCCNC(=S)NNC(=O)CSc1nc(-c2ccccc2)c(-c2ccccc2)[nH]1,> 100
5,CC(=O)c1sc(Nc2nnc(-c3ccc(-c4nnc(Nc5nc(C)c(C(C)=O)s5)o4)cc3)o2)nc1C,> 100
6,O=c1[nH]nc(Cc2ccccc2)n1/N=C/c1ccccc1O,99.8
7,CC1c2c(Cl)nc3ccccc3c2Oc2c1c(Cl)nc1ccccc21,> 100
8,COC1(OC)C(N(C)C)=C(Cl)C(=O)/C1=C/C=O,> 100
9,CC(=O)Oc1ccc2c(C)cc(=O)oc2c1OC(C)=O,> 100
10,N#Cc1c2ccccc2cn1-c1ccc(F)cc1,> 100
11,N#CCCN(C(=O)Nc1ccccc1)[C@H]1CCCC[C@@H]1N(C(=O)Nc1ccccc1)c1ccccc1,> 100
12,Nc1nc(N)c2c3c(cnc2n1)CC(c1ccccc1)CC3 (stereo not given),76.7
13,Cc1ccccc1N1C(=O)C2C=CC(n3[nH]c(=O)n(Cc4ccccc4)c3=O)CC2C1=O (stereo not given),> 100
14,CSc1ncnc2c1ncn2CCC(=O)OC(C)(C)C,> 100
15,N#Cc1c(N)nc2n[nH]c(N)c2c1-c1ccc(Cl)cc1,71.5
16,COC(=O)C1=C(C(=O)NNc2ccccc2)N(c2cccnc2Cl)C(c2ccccc2)=CC1c1ccccc1 (stereo not given),> 100
17,Nc1ncnc2c1ncn2[C@@H]1C[C@@H]1CO,> 100
18,CCOC(=O)c1nnc2c(C(=O)OCC)c3ccccc3n2c1N,> 100
19,S=c1sc2c(Cl)nc(Cl)nc2n1-c1ccccc1,> 100

row,Structure (SMILES),TGI [µM]
1,CC12CC(c3ccccc3O1)C(C(=O)Nc1ccc(Cl)cc1Cl)C(=O)N2 (stereo not given),48.4
2,COC(=O)c1cc2ccc(N)nc2[nH]c1=O,> 100
3,COC(=O)C1=C(O)C(C(=O)OC)[C@]2(O)[C@H](C(=O)OC)[C@H]1C[C@@H](c1ccc(C(F)(F)F)cc1)[C@H]2C(=O)OC (stereo not given in full),> 100
4,CCOC(=O)C12OC(CCC1=O)C(C(=O)OC)=C2C(=O)OC (stereo not given),> 10
5,NNC(=O)c1n[nH]nc1C(=O)NN,> 100
6,O=C(O)[C@@H]1CCS(=O)(=O)N1,> 100
7,CCOC(=O)NC(Nc1ccc(S(=O)(=O)Nc2nc(C)cc(C)n2)cc1)(C(=O)OCC)C(F)(F)F (stereo not given),> 100
8,COc1ccc(S(=O)(=O)c2nnc(S(=O)(=O)Cc3ccccc3)s2)cc1,75.5
9,O=[N+]([O-])c1ccc2c(c1)C1=C(CO2)Cc2ccccc2O1,> 100
10,Nc1nc(SC/C=C/c2ccccc2)c2[nH]cnc2n1,> 100
11,NC(=O)C12CC3CC(CC(F)(C3)C1)C2,> 100
12,CSc1nc(Nc2cccc(C(F)(F)F)c2)c2c(N)nn(C)c2n1,> 100
13,CCCCNC(=S)Nc1nc(C(=O)NNC(=S)Nc2ccccc2)cs1,> 100
14,CC(=O)c1c(C)n([O-])c2cc(Cl)c(Cl)cc2[n+]1=O,> 100
15,O=c1c(/C=C/c2c(O)ccc3ccccc23)nnc2sc(-c3cccc(Br)c3)nn12,> 100
16,CC(=O)Oc1c2c(c(O)c3ccccc13)C(n1cnc3c(ncn3C3OC(CO)C4OC(C)(C)OC43)c1=N)CCC2 (stereo not given),30.6
17,CN(C)CCC(=O)c1ccccc1,> 100
18,CCOc1ccccc1NC(=O)C(=O)CC(=O)c1sc(Nc2nnc(-c3ccc(Cl)c(Cl)c3)o2)nc1C,> 100

# Test system: 786-0 renal
# Experiment: inhibition of tumour cell growth, NCI panel, 48 h
row,Structure (SMILES),TGI [µM]
1,O=c1cc(-c2cccc3ccccc23)[nH]c2ncccc12,> 100
2,CN1CCOC(c2ccccc2)O1 (stereo not given),> 100
3,O=C(/C=C/c1cc2ccccc2o1)N1CCN(c2ccccn2)CC1,> 100
4,CCCNC(=S)NNC(=O)CSc1nc(-c2ccccc2)c(-c2ccccc2)[nH]1,> 100
5,CC(=O)c1sc(Nc2nnc(-c3ccc(-c4nnc(Nc5nc(C)c(C(C)=O)s5)o4)cc3)o2)nc1C,> 100
6,O=c1[nH]nc(Cc2ccccc2)n1/N=C/c1ccccc1O,> 100
7,CC1c2c(Cl)nc3ccccc3c2Oc2c1c(Cl)nc1ccccc21,> 100
8,COC1(OC)C(N(C)C)=C(Cl)C(=O)/C1=C/C=O,> 100
9,CC(=O)Oc1ccc2c(C)cc(=O)oc2c1OC(C)=O,> 100
10,N#Cc1c2ccccc2cn1-c1ccc(F)cc1,> 100
11,N#CCCN(C(=O)Nc1ccccc1)[C@H]1CCCC[C@@H]1N(C(=O)Nc1ccccc1)c1ccccc1,> 100
12,Nc1nc(N)c2c3c(cnc2n1)CC(c1ccccc1)CC3 (stereo not given),24.3
13,Cc1ccccc1N1C(=O)C2C=CC(n3[nH]c(=O)n(Cc4ccccc4)c3=O)CC2C1=O (stereo not given),> 100
14,CSc1ncnc2c1ncn2CCC(=O)OC(C)(C)C,> 100
15,N#Cc1c(N)nc2n[nH]c(N)c2c1-c1ccc(Cl)cc1,> 60.8
16,COC(=O)C1=C(C(=O)NNc2ccccc2)N(c2cccnc2Cl)C(c2ccccc2)=CC1c1ccccc1 (stereo not given),> 100
17,Nc1ncnc2c1ncn2[C@@H]1C[C@@H]1CO,> 100
18,CCOC(=O)c1nnc2c(C(=O)OCC)c3ccccc3n2c1N,> 100
19,S=c1sc2c(Cl)nc(Cl)nc2n1-c1ccccc1,> 100

row,Structure (SMILES),TGI [µM]
1,CC12CC(c3ccccc3O1)C(C(=O)Nc1ccc(Cl)cc1Cl)C(=O)N2 (stereo not given),43.8
2,COC(=O)c1cc2ccc(N)nc2[nH]c1=O,> 100
3,COC(=O)C1=C(O)C(C(=O)OC)[C@]2(O)[C@H](C(=O)OC)[C@H]1C[C@@H](c1ccc(C(F)(F)F)cc1)[C@H]2C(=O)OC (stereo not given in full),23.4
4,CCOC(=O)C12OC(CCC1=O)C(C(=O)OC)=C2C(=O)OC (stereo not given),> 10
5,NNC(=O)c1n[nH]nc1C(=O)NN,28.8
6,O=C(O)[C@@H]1CCS(=O)(=O)N1,> 100
7,CCOC(=O)NC(Nc1ccc(S(=O)(=O)Nc2nc(C)cc(C)n2)cc1)(C(=O)OCC)C(F)(F)F (stereo not given),> 100
8,CC(C)(C)OC(=O)[C@H]1CCC(=S)N1Cc1ccccc1,> 100
9,COc1ccc(S(=O)(=O)c2nnc(S(=O)(=O)Cc3ccccc3)s2)cc1,62.1
10,O=[N+]([O-])c1ccc2c(c1)C1=C(CO2)Cc2ccccc2O1,39.9
11,Nc1nc(SC/C=C/c2ccccc2)c2[nH]cnc2n1,> 100
12,NC(=O)C12CC3CC(CC(F)(C3)C1)C2,> 100
13,CSc1nc(Nc2cccc(C(F)(F)F)c2)c2c(N)nn(C)c2n1,> 100
14,CCCCNC(=S)Nc1nc(C(=O)NNC(=S)Nc2ccccc2)cs1,> 100
15,CC(=O)c1c(C)n([O-])c2cc(Cl)c(Cl)cc2[n+]1=O,> 100
16,O=c1c(/C=C/c2c(O)ccc3ccccc23)nnc2sc(-c3cccc(Br)c3)nn12,> 100
17,CC(=O)Oc1c2c(c(O)c3ccccc13)C(n1cnc3c(ncn3C3OC(CO)C4OC(C)(C)OC43)c1=N)CCC2 (stereo not given),27.8
18,CN(C)CCC(=O)c1ccccc1,44.2
19,CCOc1ccccc1NC(=O)C(=O)CC(=O)c1sc(Nc2nnc(-c3ccc(Cl)c(Cl)c3)o2)nc1C,> 100
